Here are results for 23 molecules from PubChem BioAssay AID256 (DTP/NCI, 2004).

SMILES strings stand for the structures. Where “and” joins values, the source holds several entries; their conditions need not be identical. Identical values can stand only once. Inconclusive results and toxic doses are left out.

This test relates to CD2F1 mice, L1210 leukemia ip, survival T/C. The test can be described thus: NCI In Vivo Anticancer Drug Screen. Data for tumor model L1210 Leukemia (intraperitoneal) in CD2F1 (CDF1) mice. As to conditions: higher = longer survival. In outline: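 Tumor-bearing mice (transplanted tumor) were split into treated and vehicle control groups, and the measured endpoint of each treated group was divided by that of its vehicle controls.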

The mark [1] stands for this setting: endpoint: mean survival time, dose: 75.0 mg/kg/injection, schedule: Q01DX001 (ip), vehicle: other.
Setting [2] is: endpoint: mean survival time, dose: 100.0 mg/kg/injection, schedule: Q01DX009 (ip), vehicle: saline with Tween-80.
[3] abbreviates: endpoint: mean survival time, dose: 200.0 mg/kg/injection, schedule: Q01DX009 (ip), vehicle: saline with Tween-80.
Where [4] appears, read: endpoint: mean survival time, dose: 100.0 mg/kg/injection, schedule: Q04DX003 (ip), vehicle: saline with Tween-80.
Setting [5] is: endpoint: mean survival time, dose: 200.0 mg/kg/injection, schedule: Q04DX003 (ip), vehicle: saline with Tween-80.
Setting [6] is: endpoint: mean survival time, dose: 400.0 mg/kg/injection, schedule: Q04DX003 (ip), vehicle: saline with Tween-80.
Setting [7] is: endpoint: mean survival time, dose: 75.0 mg/kg/injection, schedule: Q01DX001 (ip), vehicle: saline.
Where [8] appears, read: endpoint: mean survival time, dose: 150.0 mg/kg/injection, schedule: Q01DX001 (ip), vehicle: saline.
Setting [9] is: endpoint: mean survival time, dose: 300.0 mg/kg/injection, schedule: Q01DX001 (ip), vehicle: saline.
The mark [10] stands for this setting: endpoint: mean survival time, dose: 100.0 mg/kg/injection, schedule: Q04DX003 (ip), vehicle: saline.
The mark [11] stands for this setting: endpoint: mean survival time, dose: 200.0 mg/kg/injection, schedule: Q04DX003 (ip), vehicle: saline.
The mark [12] stands for this setting: endpoint: mean survival time, dose: 400.0 mg/kg/injection, schedule: Q04DX003 (ip), vehicle: saline.

On to `CNC1=C(C)C(=O)C2=C(C1=O)C(COC(N)=O)C1(O)C3C(CN21)N3C` (configuration not stated), for which the T/C is 98 % of control (endpoint: mean survival time, dose: 1.5 mg/kg/injection, schedule: Q01DX001 (ip), vehicle: water); 100 % of control (endpoint: mean survival time, dose: 3.0 mg/kg/injection, schedule: Q01DX001 (ip), vehicle: water); 100 % of control (endpoint: mean survival time, dose: 6.0 mg/kg/injection, schedule: Q01DX001 (ip), vehicle: water); 100 % of control (endpoint: mean survival time, dose: 12.0 mg/kg/injection, schedule: Q01DX001 (ip), vehicle: water); 98 % of control (endpoint: mean survival time, dose: 24.0 mg/kg/injection, schedule: Q01DX001 (ip), vehicle: water); 115 % of control (endpoint: mean survival time, dose: 48.0 mg/kg/injection, schedule: Q01DX001 (ip), vehicle: water). The T/C (endpoint: mean survival time, dose: 96.0 mg/kg/injection, schedule: Q01DX001 (ip), vehicle: water) was 108 % of control.
Turning to `CC(=O)C(C[CH2][Hg][Cl])C(C)=O`, under setting [1], the T/C is 92 % of control.
Turning to `O=C(CC1(O)C(=O)Nc2ccccc21)c1c[nH]c2ccccc12` (configuration not stated), the T/C was 95 % of control (endpoint: mean survival time, dose: 50.0 mg/kg/injection, schedule: Q01DX009 (ip), vehicle: saline with Tween-80); 98 % of control under setting [2]; 91 % of control under setting [3].
For `CS/C([S-])=N/N=C\c1ccccn1.CS/C([S-])=N/N=C\c1ccccn1.[Fe+2]`, the T/C by setting is: under setting [4], 103 % of control; under setting [5], 91 % of control; under setting [6], 91 % of control.
As for `Nc1nc(NC2OC(CO)C(O)C2O)c2nnsc2n1` (configuration not stated), the T/C under setting [7] is 96 % of control, the T/C under setting [8] was 100 % of control and the T/C under setting [9] was 88 % of control.
In the case of `c1ccc(-c2oc(-c3ccccc3)c3c(-c4ccccc4)cccc23)cc1`, the T/C by setting is: (endpoint: mean survival time, dose: 50.0 mg/kg/injection, schedule: Q04DX002 (ip), vehicle: saline with Tween-80) 90 % of control; (endpoint: mean survival time, dose: 100.0 mg/kg/injection, schedule: Q04DX002 (ip), vehicle: saline with Tween-80) 87 % of control; (endpoint: mean survival time, dose: 200.0 mg/kg/injection, schedule: Q04DX002 (ip), vehicle: saline with Tween-80) 87 % of control.
As to `OCCOc1ccc(Cl)cc1Cl`, the T/C is, setting by setting: (endpoint: mean survival time, dose: 75.0 mg/kg/injection, schedule: Q04DX003 (ip), vehicle: saline with Tween-80) 98 % of control; (endpoint: mean survival time, dose: 150.0 mg/kg/injection, schedule: Q04DX003 (ip), vehicle: saline with Tween-80) 97 % of control; (endpoint: mean survival time, dose: 300.0 mg/kg/injection, schedule: Q04DX003 (ip), vehicle: saline with Tween-80) 98 % of control.
As for `Nc1cccc2c(S(=O)(=O)O)cccc12`, the T/C under setting [10] was 100 % of control, the T/C under setting [11] is 100 % of control and the T/C under setting [12] is 97 % of control.
Take `Clc1ccc(N=C(Nc2ccc(Cl)cc2)c2ccccc2)cc1`: the T/C by setting is: under setting [4], 104 % of control; under setting [5], 110 % of control; under setting [6], 98 % of control.
`O=C1C2C3CCC(CC3)C2C(=O)C2C3CCC(C3)C12` (configuration not stated): the T/C by setting is: under setting [4], 100 % of control; under setting [5], 92 % of control; under setting [6], 88 % of control.
`c1ccc(-c2nc(-c3nn[nH]n3)c3ccccc3n2)cc1`: the T/C by setting is: (endpoint: mean survival time, dose: 100.0 mg/kg/injection, schedule: Q01DX001 (ip), vehicle: saline) 89 % of control; (endpoint: mean survival time, dose: 200.0 mg/kg/injection, schedule: Q01DX001 (ip), vehicle: saline) 97 % of control.
Take `C#CC1(OC(=O)Nc2ccc3c(c2)OCO3)CCCCC1`: the T/C by setting is: (endpoint: mean survival time, dose: 100.0 mg/kg/injection, schedule: Q01DX001 (ip), vehicle: saline with Tween-80) 92 % of control; (endpoint: mean survival time, dose: 200.0 mg/kg/injection, schedule: Q01DX001 (ip), vehicle: saline with Tween-80) 86 % of control; (endpoint: mean survival time, dose: 400.0 mg/kg/injection, schedule: Q01DX001 (ip), vehicle: saline with Tween-80) 95 % of control.
For the molecule `OC(c1ccccc1)c1cc(-c2ccccc2)c(-c2ccccc2)cc1C(O)c1ccccc1` (configuration not stated), the T/C (endpoint: mean survival time, dose: 12.5 mg/kg/injection, schedule: Q04DX003 (ip), vehicle: saline with Tween-80) was 102 % of control and the T/C (endpoint: mean survival time, dose: 25.0 mg/kg/injection, schedule: Q04DX003 (ip), vehicle: saline with Tween-80) was 114 % of control.
`CC(=O)Oc1c(C)ncc(C=O)c1C`: the T/C under setting [1] was 101 % of control and the T/C (endpoint: mean survival time, dose: 150.0 mg/kg/injection, schedule: Q01DX001 (ip), vehicle: other) was 100 % of control.
Consider `O=c1c(O)c(O)c1=O.[NH2-].[NH2-].[NH2-].[NH2-].[NH2-].[Ru+5]`, for which the T/C is, setting by setting: (endpoint: median survival time, dose: 3.12 mg/kg/injection, schedule: Q01DX005 (ip), vehicle: saline) 119 % of control; (endpoint: median survival time, dose: 3.12 mg/kg/injection, schedule: Q01DX005 (ip), vehicle: suspension in saline) 114 % of control; (endpoint: median survival time, dose: 6.25 mg/kg/injection, schedule: Q01DX005 (ip), vehicle: saline) 122 % of control; (endpoint: median survival time, dose: 6.25 mg/kg/injection, schedule: Q01DX005 (ip), vehicle: suspension in saline) 114 % of control; (endpoint: median survival time, dose: 12.5 mg/kg/injection, schedule: Q01DX005 (ip), vehicle: suspension in saline) 109 % of control; (endpoint: median survival time, dose: 25.0 mg/kg/injection, schedule: Q01DX005 (ip), vehicle: saline) 116 % of control.
For the molecule `CCN=c1cc2oc3cc(NCC)c(C)cc3c(-c3ccccc3C(=O)OCC)c-2cc1C`, the T/C by setting is: (endpoint: mean survival time, dose: 2.5 mg/kg/injection, schedule: Q04DX003 (ip), vehicle: saline) 101 % of control; (endpoint: mean survival time, dose: 5.0 mg/kg/injection, schedule: Q04DX003 (ip), vehicle: saline) 109 % of control; (endpoint: mean survival time, dose: 10.0 mg/kg/injection, schedule: Q04DX003 (ip), vehicle: saline) 90 % of control and 102 % of control.
Regarding `COc1cc2c[n+](C)c3c(c2cc1OC)Cc1cc2c(cc1-3)OCO2`, the T/C is, setting by setting: (endpoint: median survival time, dose: 6.0 mg/kg/injection, schedule: Q01DX009 (ip), vehicle: saline with Tween-80) 122 % of control; (endpoint: median survival time, dose: 25.0 mg/kg/injection, schedule: Q01DX009 (ip), vehicle: saline with Tween-80) 152 % of control and 162 % of control; (endpoint: median survival time, dose: 50.0 mg/kg/injection, schedule: Q01DX009 (ip), vehicle: saline with Tween-80) 164 % of control and 168 % of control; (endpoint: median survival time, dose: 100.0 mg/kg/injection, schedule: Q01DX009 (ip), vehicle: saline with Tween-80) 94 % of control.
Take `CSC(I)(N(C)C)N(C)C`: the T/C under setting [7] is 98 % of control, the T/C under setting [8] is 101 % of control and the T/C under setting [9] is 98 % of control.
On to `CC(=O)c1ccc(C(=O)CC(O)(C(F)(F)F)C(F)(F)F)cc1`, for which the T/C reads like this: (endpoint: mean survival time, dose: 50.0 mg/kg/injection, schedule: Q01DX009 (ip), vehicle: other) 98 % of control; (endpoint: mean survival time, dose: 100.0 mg/kg/injection, schedule: Q01DX009 (ip), vehicle: other) 104 % of control; (endpoint: mean survival time, dose: 100.0 mg/kg/injection, schedule: Q04DX003 (ip), vehicle: other) 95 % of control; (endpoint: mean survival time, dose: 200.0 mg/kg/injection, schedule: Q01DX009 (ip), vehicle: other) 106 % of control; (endpoint: mean survival time, dose: 200.0 mg/kg/injection, schedule: Q04DX003 (ip), vehicle: other) 97 % of control.
For the molecule `Cn1c(=O)c2c(ncn2CCSS(=O)(=O)O)n(C)c1=O`, the T/C is 100 % of control (endpoint: mean survival time, dose: 12.5 mg/kg/injection, schedule: Q01DX005 (ip), vehicle: water); 94 % of control (endpoint: mean survival time, dose: 25.0 mg/kg/injection, schedule: Q01DX005 (ip), vehicle: water); 102 % of control (endpoint: mean survival time, dose: 50.0 mg/kg/injection, schedule: Q01DX005 (ip), vehicle: water); 100 % of control (endpoint: mean survival time, dose: 100.0 mg/kg/injection, schedule: Q01DX005 (ip), vehicle: water); 98 % of control (endpoint: mean survival time, dose: 200.0 mg/kg/injection, schedule: Q01DX005 (ip), vehicle: water).
Turning to `Cc1nc(N)n[nH]1`, the T/C was 92 % of control under setting [2]; 102 % of control under setting [10]; 97 % of control under setting [3]; 100 % of control under setting [11]; 88 % of control (endpoint: mean survival time, dose: 400.0 mg/kg/injection, schedule: Q01DX009 (ip), vehicle: saline with Tween-80); 96 % of control under setting [12].
With `Nc1nc(N)c2cc(CNc3ccc(C(=O)NC(CC(=O)O)C(=O)O)c(Cl)c3)ccc2n1` (configuration not stated), the T/C (endpoint: mean survival time, dose: 5.0 mg/kg/injection, schedule: Q01DX001 (ip), vehicle: saline) was 160 % of control.
Consider `CCCCN(CCCC)CC(O)c1cc(-c2c(Cl)cccc2Cl)nc2c(Cl)cc(Cl)cc12` (configuration not stated), for which the T/C is, setting by setting: under setting [4], 86 % of control; under setting [5], 93 % of control; under setting [6], 96 % of control.
